{"source": "patent US7381729B2", "about": "“4-(4-trans-hydroxycyclohexyl)amino-2-phenyl-7H-pyrrolo [2,3D] pyrimidine hydrogen mesylate, its polymorphic forms, and methods for making same” (Solvay Pharmaceuticals B.V., priority 2003, dated 2008)", "key": {"[1]": {"assay": "Relative stability of the polymorphic forms", "format": "physicochemical", "details": "form α versus form β"}, "[2]": {"assay": "Solubility in gastrointestinal fluids", "format": "physicochemical"}, "[3]": {"assay": "Solubility by shake flask method (OECD guideline No. 105) in purified water", "details": "25° C.", "method": "Solubility measurements were carried out with the shake flask method according to the OECD guideline at 25° C."}, "[4]": {"assay": "Stability at ambient conditions", "format": "physicochemical"}}, "data": [{"smiles": "CS(=O)(=O)O.OC1CCC(Nc2nc(-c3ccccc3)nc3[nH]ccc23)CC1", "note": "(stereo not drawn) [Polymorph α, 4-(4-trans-hydroxy-cyclohexyl)amino-2-phenyl-7H-pyrrolo[2,3d]pyrimidine mesylate]", "values": [{"measurement": "polymorphic stability (in words)", "setting": "[1]", "value": "metastable with respect to form β"}]}, {"smiles": "O[C@H]1CC[C@H](Nc2nc(-c3ccccc3)nc3[nH]ccc23)CC1", "note": "[Base, 4-(4-trans-hydroxy-cyclohexyl)amino-2-phenyl-7H-pyrrolo[2,3d]pyrimidine]", "values": [{"measurement": "solubility in gastrointestinal fluids (in words)", "setting": "[2]", "value": "low solubility"}, {"measurement": "Solubility", "setting": "[3]", "value": 5.9, "unit": "ng/mL"}]}, {"smiles": "CS(=O)(=O)O.OC1CCC(Nc2nc(-c3ccccc3)nc3[nH]ccc23)CC1", "note": "(stereo not drawn) [Polymorph β, 4-(4-trans-hydroxy-cyclohexyl)amino-2-phenyl-7H-pyrrolo[2,3d]pyrimidine mesylate]", "values": [{"measurement": "polymorphic stability (in words)", "setting": "[1]", "value": "stable form"}]}, {"smiles": "CS(=O)(=O)O.OC1CCC(Nc2nc(-c3ccccc3)nc3[nH]ccc23)CC1", "note": "(stereo not drawn) [mesylate salt, 4-(4-trans-hydroxy-cyclohexyl)amino-2-phenyl-7H-pyrrolo[2,3d]-pyrimidine mesylate]", "values": [{"measurement": "stability at ambient conditions (in words)", "setting": "[4]", "value": "very stable"}]}]}
